Test results: PMC8625693, “Synthesis and Structure-Activity Relationships of New 2-Phenoxybenzamides with Antiplasmodial Activity” (Pharmaceuticals, 2021)
Where two headings read alike, the source gives them in different places.

How the values were obtained:
P. falciparum NF54 = experiment: In vitro microplate assay against P. falciparum NF54 (3H-hypoxanthine incorporation, erythrocytic stages); assay type: cell-based, Plasmodium falciparum
Experimental: (§1) All newly synthesized compounds were tested for their antiplasmodial activity against the chloroquine-sensitive strain Plasmodium falciparum NF54. Cytotoxicity was determined using rat skeletal myofibroblasts (L-6 cells). As standards chloroquine and podophyllotoxin were used.
In vitro activity against erythrocytic stages of P. falciparum was determined with a ^3H-hypoxanthine incorporation assay, using the chloroquine sensitive NF54 strain [44]. Chloroquine (Sigma C6628) was used as standard. Test compounds were dissolved in DMSO at 10 mg/mL and added to parasite cultures incubated in RPMI 1640 medium without hypoxanthine, supplemented with HEPES (5.94 g/L, NaHCO3 (2.1 g/L), neomycin (100 U/mL), Albumax (5 g/L) and washed human red blood cells A^+ at 2.5% hematocrit (0.3% parasitemia). Serial drug dilutions of 11 3-fold dilution steps (covering a range from 100–0.002 µg/mL) were prepared. The 96-well plates were incubated at a humidified atmosphere at 37 °C; 4% CO2, 3% O2, 93% N2. After 48 h, 0.05 mL of ^3H-hypoxanthine (=0.5 µCi) was added to each well. The plates were incubated for another 24 h under the same conditions. Then, the plates were harvested with a Betaplate cell harvester (Wallac, Zurich, Switzerland). The red blood cells were transferred onto glass fiber filter and washed with distilled water. The dried filters were inserted into a plastic foil with 10 mL of scintillation fluid and counted in a Betaplate liquid scintillation counter. IC50 values were determined from sigmoidal inhibition curves by linear regression using Microsoft Excel. Chloroquine was used as control.

[1] = In vitro cytotoxicity with L-6 cells (Alamar Blue); assay type: cell-based, rat
Experimental: as §1
(§2) In vitro cytotoxicity was determined using a primary cell line of rat skeletal myofibroblasts. The assay was performed in 96-well microtiter plates, each well containing 0.1 mL of RPMI 1640 medium, supplemented with 0.1% L-glutamine (200 mM) and 10% fetal bovine serum, as well as 4000 L-6 cells. Serial drug dilutions of 11 3-fold dilution steps (covering a range from 100–0.002 µg/mL) were prepared. After 70 h of incubation time, the plates were inspected under an inverted microscope to ensure sterile conditions and growth of the controls. […] Podophyllotoxin (Sigma P4405) was used as control.

[2] = Parallel artificial membrane permeability assay (PAMPA); details: pH 7.4
Experimental: The PAMPA was performed using a Corning Gentest Pre-coated PAMPA Plate System at a pH of 7.4. It consists of 96-well polystyrene plates, whereas the donor-plate (bottom plate) is a conventional 96-well microtiter plate. The base of the acceptor-plate (top plate) consists of a porous membrane. The pores are lined with a lipid-oil-lipid trilayer. Stock solutions (10 mM) of each test compound were prepared in DMSO or MeOH and then further diluted to a final concentration of 200 µM with phosphate-buffered saline (PBS) at a pH of 7.4. Compound solutions were then added to the wells of the donor plate and pure PBS was added to each well of the acceptor plate. Compounds and negative control (pure PBS) were tested in quadruplicates. Donor and acceptor plate were coupled and incubated at ambient temperature for 5 h. After that, the plates were separated and solutions from each well of both plates were transferred onto 96-well UV-Star Microplates (Greiner Bio-One). The UV-absorption was measured at different wavelengths (between 200 and 300 nm) by a SpectraMax M3 UV plate reader (Molecular Devices). The concentrations were received from a calibration curve for each substance. The plates were analyzed at a wavelength were the R^2 value of the calibration curve was higher than 0.99 [48]. […] (2) cequ=cDt* VD+cAt* VA/VD+VA where: • cD(t)—compound concentration in donor well at time t.
Recovery of compounds from donor and acceptor wells (mass retention) was calculated as shown in the equation below. Data were only accepted when recovery exceeded 70%. (3) R=1−cDt∗ VD+cAt∗ VA/c0∗ VD where: • R—mass retention (%); • cA(t)—compound concentration in acceptor well at time t; • cD(t)—compound concentration in donor well at time t; • c0—initial compound concentration in donor well; • VD—donor well volume; • VA—acceptor well volume.

CYP3A4 = target: T1, CYP3A4 (Homo sapiens, UniProt P08684); experiment: Cytochrom P450 3A4 inhibition assay (P450-Glo, luciferin-IPA); assay type: in vitro ADME; details: recombinant human CYP3A4 Supersomes (+ oxidoreductase + b5), probe luciferin-IPA, stock solutions diluted to 20 µM, pH 7.4, triplicate
T1 construct: purchased Corning, Glendale, AZ, USA
Experimental: The CYP3A4 inhibition assay was performed using 96-well White Plates (Greiner Bio-One) at a pH of 7.4. […] Stock solutions were further diluted to a final concentration of 20 µM using water (HPLC grade). The luciferin IPA stock solution (3 mM) was diluted to a final concentration of 0.3 mM using water (HPLC grade). The CYP3A4 reaction mixture was prepared by mixing water (HPLC grade) with potassium phosphate buffer (1 M), luciferin IPA (0.3 mM) and CYP3A4 membrane (1 pmol/µL). The control reaction mixture was prepared using water (HPLC grade), potassium phosphate buffer (1 M), luciferin IPA (0.3 mM) and membrane without CYP activity (1 pmol/µL). Solutions A and B of the NADPH regeneration system were mixed and HPLC grade water was added. The reconstituted luciferin detection reagent was prepared by mixing the reconstituted buffer with esterase with the luciferin detection reagent. Then, solutions of test compounds and standard were added to the wells of the 96-well White Plate, each was tested in triplicate. The CYP3A4 reaction mixture was added to each well and the plate was incubated for 10 min at room temperature. After that, the NADPH regeneration system was added, inducing the reaction followed by an incubation time of 10 min at ambient temperature. By adding the reconstituted luciferin detection reagent, the reaction was terminated, and a luminescent signal was formed. Luminescence was measured by a SpectraMax M3 UV plate reader (Molecular Devices). The relative light units (RLU) were received from a calibration curve with beetle luciferin. […] The CYP3A4 inhibition (%) was calculated from the RLU.

L-6 cells = experiment: In vitro cytotoxicity with L-6 cells (Alamar Blue); assay type: cell-based, rat
Experimental: as §1, §2

[3] = Plasmodium falciparum, NF54, chloroquine-sensitive strain NF54, blood stages, average of four determinations, read-out: P.f. NF54 IC50
[4] = chloroquine-sensitive strain NF54, blood stages, average of four determinations, read-out: P.f. NF54 IC50
[5] = rat, Cytotoxicity L-6 Cells IC50
[6] = rat skeletal myofibroblasts, average of four determinations, read-out: Cytotoxicity L-6 Cells IC50

T1 sequence (P08684 2-503 limits assumed): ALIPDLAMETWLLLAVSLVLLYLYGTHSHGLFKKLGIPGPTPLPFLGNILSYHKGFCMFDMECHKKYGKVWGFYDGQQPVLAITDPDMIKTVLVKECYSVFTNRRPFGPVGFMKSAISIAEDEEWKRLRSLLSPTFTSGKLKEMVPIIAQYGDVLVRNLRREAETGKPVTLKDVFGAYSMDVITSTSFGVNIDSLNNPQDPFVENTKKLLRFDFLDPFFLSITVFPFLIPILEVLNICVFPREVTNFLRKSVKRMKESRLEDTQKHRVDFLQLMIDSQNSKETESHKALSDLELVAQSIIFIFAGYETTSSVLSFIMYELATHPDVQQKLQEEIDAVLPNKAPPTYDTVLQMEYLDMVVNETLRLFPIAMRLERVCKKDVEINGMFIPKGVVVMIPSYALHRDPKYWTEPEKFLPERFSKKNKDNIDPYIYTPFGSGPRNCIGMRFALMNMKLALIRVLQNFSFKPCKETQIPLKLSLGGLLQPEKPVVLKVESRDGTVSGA

SMILES	IC50 (P. falciparum NF54; [3]) [µM]	Papp at 5 h, 200 µM [2] [×10⁻⁶ cm/s]	inhibition at 10 min, 20 µM (CYP3A4) [%]	IC50 at 72 h [1, 5] [µM]	other results
CC(C)(C)OC(=O)N1CCN(c2ccccc2NC(=O)c2cccc(C(F)(F)F)c2Oc2ccccc2)CC1 [Compound 6, tert-Butyl-4-{2-[2-phenoxy-3-(trifluoromethyl)benzamido]phenyl}piperazine-1-carboxylate]	1.01 to 1.15	3	87	–	IC50 (P. falciparum NF54; [4]): 1.01 µM; IC50 at 72 h ([1]; rat, rat skeletal myofibroblasts, average of four determinations, read-out: Cytotoxicity L-6 Cells IC50): 128 µM
CC(=O)Nc1ccc(Oc2c(C(=O)Nc3ccccc3N3CCN(C(=O)OC(C)(C)C)CC3)cccc2C(F)(F)F)cc1 [Compound 8, tert-Butyl-4-{2-[2-(4-acetamidophenoxy)-3-(trifluoromethyl)benzamido]phenyl}piperazine-1-carboxylate]	1.01 to 1.15	4.06	99	73	IC50 (P. falciparum NF54; [4]): 1.15 µM
Nc1ccc(NC(=O)c2cccc(C(F)(F)F)c2Oc2ccc(F)cc2)cc1 [Compound 51, N-(4-Aminophenyl)-2-(4-fluorophenoxy)-3-(trifluoromethyl)benzamide]	51.5 to 51.9	12.9	88	130	IC50 (P. falciparum NF54; [4]): 55.9 µM
COc1cc([C@@H]2c3cc4c(cc3[C@H](O)[C@H]3COC(=O)[C@H]23)OCO4)cc(OC)c1OC [POD, podophyllotoxin, reference compound]	–	–	–	–	IC50 (L-6 cells; [6]): 0.012 µM
Nc1cccc(NC(=O)c2cccc(C(F)(F)F)c2Oc2ccc(F)cc2)c1 [Compound 50, N-(3-Aminophenyl)-2-(4-fluorophenoxy)-3-(trifluoromethyl)benzamide]	51.5 to 51.9	18.4	–	104	IC50 (P. falciparum NF54; [4]): 51.5 µM
CC(C)(C)C(=O)N1CCN(c2ccccc2NC(=O)c2cccc(C(F)(F)F)c2Oc2ccccc2)CC1 [Compound 56, N-{2-[4-(2,2-Dimethylpropanoyl)piperazin-1-yl]phenyl}-2-phenoxy-3-(trifluoromethyl)benzamide]	0.617 to 0.659	0.11	–	185 to 190	IC50 (P. falciparum NF54; [4]): 0.659 µM; IC50 (L-6 cells; rat, 72 h): 190 µM
Nc1ccccc1NC(=O)c1cccc(C(F)(F)F)c1Oc1ccc(F)cc1 [Compound 14, N-(2-Aminophenyl)-2-(4-fluorophenoxy)-3-(trifluoromethyl)benzamide]	–	11.4	–	129	–
Cn1c(=O)c2c(ncn2C)n(C)c1=O [caffeine, reference compound]	–	8	–	–	–
CN(C)C(=O)N1CCN(c2ccccc2NC(=O)c2cccc(C(F)(F)F)c2Oc2ccc(F)cc2)CC1 [Compound 22, N-{2-[4-(N,N-Dimethylcarbamoyl)piperazin-1-yl]phenyl}-2-(4-fluorophenoxy)-3-(trifluoromethyl)benzamide]	2.3	–	–	20.2	–
CC(C)(C)C(=O)N1CCN(c2cccc(NC(=O)c3cccc(C(F)(F)F)c3Oc3ccc(F)cc3)c2)CC1 [Compound 38, N-{3-[4-(2,2-Dimethylpropanoyl)piperazin-1-yl]phenyl}-2-(4-fluorophenoxy)-3-(trifluoromethyl)benzamide]	3.17	1.17	–	78 to 99.6	IC50 (L-6 cells; rat, 72 h): 78 µM
CC(C)(C)OC(=O)N1CCN(c2cccc(NC(=O)c3cccc(C(F)(F)F)c3Oc3ccc(F)cc3)c2)CC1 [Compound 36, tert-Butyl-4-{3-[2-(4-fluorophenoxy)-3-(trifluoromethyl)benzamido]phenyl}piperazine-1-carboxylate]	3.3	6.17	96	124	–
CC(C)(C)OC(=O)Nc1ccccc1NC(=O)c1cccc(C(F)(F)F)c1Oc1ccc(F)cc1 [Compound 13, tert-Butyl-N-{2-[2-(4-fluorophenoxy)-3-(trifluoromethyl)benzamido]phenyl}carbamate]	1.9	8.72	90	–	–
CC(C)(C)C(=O)N1CCN(c2ccc(NC(=O)c3cccc(C(F)(F)F)c3Oc3ccccc3)cc2)CC1 [Compound 55, N-{4-[4-(2,2-Dimethylpropanoyl)piperazin-1-yl]phenyl}-2-phenoxy-3-(trifluoromethyl)benzamide]	4.66	11.2	60	89.8	–
NC(=O)N1CCN(c2ccccc2NC(=O)c2cccc(C(F)(F)F)c2Oc2ccc(F)cc2)CC1 [Compound 21, N-[2-(4-Carbamoylpiperazin-1-yl)phenyl]-2-(4-fluorophenoxy)-3-(trifluoromethyl)benzamide]	–	7.44	–	31.8 to 35.4	IC50 (L-6 cells; rat, 72 h): 35.4 µM
CCN(CC)CCCC(C)Nc1ccnc2cc(Cl)ccc12 (stereo not drawn) [CQ, chloroquine, reference compound]	–	–	–	–	IC50 (P. falciparum NF54; Plasmodium falciparum, NF54, read-out: P.f. NF54 IC50): 0.009 µM; IC50 at 72 h [1, 6]: 90.9 µM
CC(C)(C)OC(=O)N1CCN(c2ccccc2NC(=O)c2cccc(C(F)(F)F)c2)CC1 [Compound 7, tert-Butyl-4-{2-[3-(trifluoromethyl)benzamido]phenyl}piperazine-1-carboxylate]	3.74	0.08	–	113	–
CC(C)(C)OC(=O)N1CCN(c2ccc(NC(=O)c3cccc(C(F)(F)F)c3Oc3ccc(F)cc3)cc2)CC1 [Compound 37, tert-Butyl-4-{4-[2-(4-fluorophenoxy)-3-(trifluoromethyl)benzamido]phenyl}piperazine-1-carboxylate]	0.269	0.09	93	124	–
CC(=O)N1CCN(c2ccccc2NC(=O)c2cccc(C(F)(F)F)c2Oc2ccc(F)cc2)CC1 [Compound 17, N-[2-(4-Acetylpiperazin-1-yl)phenyl]-2-(4-fluorophenoxy)-3-(trifluoromethyl)benzamide]	2.53	10.1	–	27.1	–
